Experimental data published in publication PMC10648927, “Examining the activity of cefepime-taniborbactam against Burkholderia cepacia complex and Burkholderia gladioli isolated from cystic fibrosis patients in the United States” (Antimicrobial Agents and Chemotherapy, 2023).
In brackets after ≈: the same amount, converted by molar mass.

Columns and labels:
Parameters in all cases: agar dilution MIC, growth inhibition of clinical Burkholderia isolates
[1] = system: T1, B. ambifaria AU5203; assay: microbe, parasite or virus in culture; details: Burkholderia ambifaria, AU5203
T1 construct: AU5203
Summary of the method: (§1)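 MICs by agar dilution against Bcc and B. gladioli clinical isolates, interpreted with CLSI breakpoints where available; K. pneumoniae ATCC 700603 (SHV-18) and ATCC BAA-1705 (KPC) served as quality controls.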

[2] = system: T2, B. cenocepacia AU13262; assay: microbe, parasite or virus in culture; details: Burkholderia cenocepacia, AU13262
T2 construct: AU13262
Summary of the method: as §1

[3] = system: T3, B. cenocepacia AU19530; assay: microbe, parasite or virus in culture; details: Burkholderia cenocepacia, AU19530
T3 construct: AU19530
Summary of the method: as §1

[4] = system: T4, B. cenocepacia AU8635; assay: microbe, parasite or virus in culture; details: Burkholderia cenocepacia, AU8635
T4 construct: AU8635
Summary of the method: as §1

[5] = system: T5, B. cepacia AU0329; assay: microbe, parasite or virus in culture; details: Burkholderia cepacia, AU0329
T5 construct: AU0329
Summary of the method: as §1

[6] = system: T6, B. cepacia AU13163; assay: microbe, parasite or virus in culture; details: Burkholderia cepacia, AU13163
T6 construct: AU13163
Summary of the method: as §1

[7] = system: T7, B. cepacia AU1555; assay: microbe, parasite or virus in culture; details: Burkholderia cepacia, AU1555
T7 construct: AU1555
Summary of the method: as §1

[8] = system: T8, B. cepacia AU16396; assay: microbe, parasite or virus in culture; details: Burkholderia cepacia, AU16396
T8 construct: AU16396
Summary of the method: as §1

[9] = system: T9, B. cepacia AU22213; assay: microbe, parasite or virus in culture; details: Burkholderia cepacia, AU22213
T9 construct: AU22213
Summary of the method: as §1

[10] = system: T10, B. gladioli AU26456; assay: organism not typed
T10 construct: AU26456
Summary of the method: as §1

[11] = system: T11, B. multivorans AU10897; assay: microbe, parasite or virus in culture; details: Burkholderia multivorans, AU10897
T11 construct: AU10897
Summary of the method: as §1

[12] = system: T12, B. multivorans AU11358; assay: microbe, parasite or virus in culture; details: Burkholderia multivorans, AU11358
T12 construct: AU11358
Summary of the method: as §1

[13] = system: T13, B. multivorans AU11772; assay: microbe, parasite or virus in culture; details: Burkholderia multivorans, AU11772
T13 construct: AU11772
Summary of the method: as §1

[14] = system: T14, B. multivorans AU19564; assay: microbe, parasite or virus in culture; details: Burkholderia multivorans, AU19564
T14 construct: AU19564
Summary of the method: as §1

[15] = system: T15, B. multivorans AU21596; assay: microbe, parasite or virus in culture; details: Burkholderia multivorans, AU21596
T15 construct: AU21596
Summary of the method: as §1

[16] = system: T16, B. multivorans AU23919; assay: microbe, parasite or virus in culture; details: Burkholderia multivorans, AU23919
T16 construct: AU23919
Summary of the method: as §1

[17] = system: T17, B. multivorans AU24277; assay: microbe, parasite or virus in culture; details: Burkholderia multivorans, AU24277
T17 construct: AU24277
Summary of the method: as §1

[18] = system: T18, B. multivorans AU25626; assay: microbe, parasite or virus in culture; details: Burkholderia multivorans, AU25626
T18 construct: AU25626
Summary of the method: as §1

[19] = system: T19, B. multivorans AU27706; assay: microbe, parasite or virus in culture; details: Burkholderia multivorans, AU27706
T19 construct: AU27706
Summary of the method: as §1

[20] = system: T20, B. seminalis AU14842; assay: organism not typed
T20 construct: AU14842
Summary of the method: as §1

[21] = system: T21, B. vietnamiensis AU30387; assay: microbe, parasite or virus in culture; details: Burkholderia vietnamiensis, AU30387
T21 construct: AU30387
Summary of the method: as §1

[22] = system: T22, B. vietnamiensis AU5003; assay: microbe, parasite or virus in culture; details: Burkholderia vietnamiensis, AU5003
T22 construct: AU5003
Summary of the method: as §1

Structure (SMILES)	MIC [1] [µg/mL]	MIC [2] [µg/mL]	MIC [3] [µg/mL]	MIC [4] [µg/mL]	MIC [5] [µg/mL]	MIC [6] [µg/mL]	MIC [7] [µg/mL]	MIC [8] [µg/mL]	MIC [9] [µg/mL]	MIC [10] [µg/mL]	MIC [11] [µg/mL]	MIC [12] [µg/mL]	MIC [13] [µg/mL]	MIC [14] [µg/mL]	MIC [15] [µg/mL]	MIC [16] [µg/mL]	MIC [17] [µg/mL]	MIC [18] [µg/mL]	MIC [19] [µg/mL]	MIC [20] [µg/mL]	also measured
C[C@H]1COc2c(N3CCN(C)CC3)c(F)cc3c(=O)c(C(=O)O)cn1c23 [levofloxacin]	> 32	4 (≈ 11.1 µM)	16 (≈ 44.3 µM)	> 32	> 32	2 (≈ 5.53 µM)	16 (≈ 44.3 µM)	> 32	2 (≈ 5.53 µM)	0.5 (≈ 1.38 µM)	16 (≈ 44.3 µM)	2 (≈ 5.53 µM)	8 (≈ 22.1 µM)	8 (≈ 22.1 µM)	> 32	2 (≈ 5.53 µM)	32 (≈ 88.6 µM)	4 (≈ 11.1 µM)	1 (≈ 2.77 µM)	4 (≈ 11.1 µM)	MIC [21]: 2 µg/mL (≈ 5.53 µM); MIC [22]: 8 µg/mL (≈ 22.1 µM)
CO/N=C(\C(=O)N[C@@H]1C(=O)N2C(C(=O)[O-])=C(C[N+]3(C)CCCC3)CS[C@H]12)c1csc(N)n1 [cefepime]	16 (≈ 33.3 µM)	> 32	> 32	> 32	> 32	16 (≈ 33.3 µM)	> 32	32 (≈ 66.6 µM)	32 (≈ 66.6 µM)	4 (≈ 8.32 µM)	32 (≈ 66.6 µM)	8 (≈ 16.6 µM)	> 32	16 (≈ 33.3 µM)	> 32	32 (≈ 66.6 µM)	> 32	8 (≈ 16.6 µM)	1 (≈ 2.08 µM)	16 (≈ 33.3 µM)	MIC [21]: 2 µg/mL (≈ 4.16 µM); MIC [22]: > 32 µg/mL
C[C@@H](O)[C@H]1C(=O)N2C(C(=O)O)=C(S[C@@H]3CN[C@H](C(=O)N(C)C)C3)[C@H](C)[C@H]12 [meropenem]	4 (≈ 10.4 µM)	4 (≈ 10.4 µM)	8 (≈ 20.9 µM)	16 (≈ 41.7 µM)	2 (≈ 5.22 µM)	4 (≈ 10.4 µM)	8 (≈ 20.9 µM)	8 (≈ 20.9 µM)	4 (≈ 10.4 µM)	1 (≈ 2.61 µM)	8 (≈ 20.9 µM)	8 (≈ 20.9 µM)	16 (≈ 41.7 µM)	4 (≈ 10.4 µM)	32 (≈ 83.4 µM)	4 (≈ 10.4 µM)	16 (≈ 41.7 µM)	> 32	0.5 (≈ 1.3 µM)	4 (≈ 10.4 µM)	MIC [21]: 0.25 µg/mL (≈ 0.652 µM); MIC [22]: 4 µg/mL (≈ 10.4 µM)
